Like-named read-outs stand apart in the source and are kept apart here. A value given as a limit tells only on which side of the number the result lay.

Assay type in all cases: cell-based
Assay [1] deals with T98G (human glyoblastoma). As to the kind of experiment: MTT cell proliferation (cytotoxicity) assay, T98G. The following applies: read-out: IC50 or concentration required to achieve 50% growth inhibition compared to untreated cells, T98G (glyoblastoma). On the procedure:
(§1) MTM and CRM derivatives were assayed against a collection of tumor cell lines. Tumor cell lines were obtained from The American Type and Culture Collection (ATCC), and the lines were the following; A549 (human lung carcinoma); H116 (colon adenocarcinoma); PSN1 (pancreatic adenocarcinoma) and T98G (human glyoblastoma). Cells were cultured in medium RPM1 containing 2 mM glutamine, 50 IU/ml penicillin and 50 μg/ml streptomycin. Culture medium for cell lines A549 and H116 was supplemeted with 5% FBS and culture medium for cell lines PSN1 and T98G was supplemented with 10% FBS.
(§2) The evaluation of compound cytotoxicity was carried out by determining cell viability using an assay based on metabolic reduction of 3-(4,5-dimethyl-2-thiazolyl)-2,5-diphenyltetrazolium bromide (MTT; Sigma Chemical Co. St. Louis, Mo.). This reduction reaction is carried out by mitochondrion succinate dehydrogenase of viable cells and produce formazan, a chromogenic compound that can be quantified by spectrophotometry.
(§3) The assay was carried out following the procedure described by Mosmann (J. Immunol. Methods 1983, 65, 55). Tumor cells were incubated in 96 well microtitre plates containing 200 μl of complete medium (with 4×10^3 cells/well for A549 and 6×10^3 cells/well for H116, PSN1 and T98G). Serial dilutions in DMSO of the test compounds (10 μg/ml, 5 μg/ml, 1 μg/ml, 0.5 μg/ml, 0.1 μg/ml, 0.05 μg/ml, 0.01 μg/ml, y 0.005 μg/ml) were added and after 2 days incubation (at 37° C., 5% CO2 and high relative humidity), 50 μl of MTT (1 mg/ml in PBS) was added to each well. The plates were incubated at 37° C. for 2 hours and the reduction product (formazan) was resuspended in 100 μl of DMSO and quantified at 490 nm with a spectrophotometer.

Assay [2] relates to PSN1 (pancreatic adenocarcinoma). As to the kind of experiment: MTT cell proliferation (cytotoxicity) assay, PSN1. The following applies: read-out: IC50 or concentration required to achieve 50% growth inhibition compared to untreated cells, PSN1 (pancreatic adenocarcinoma). On the procedure:
as §1, §2, §3

In assay [3] the test system is H116 (colon adenocarcinoma). As to the kind of experiment: MTT cell proliferation (cytotoxicity) assay, H116. The following applies: read-out: IC50 or concentration required to achieve 50% growth inhibition compared to untreated cells, H116 (colon). On the procedure:
as §1, §2, §3

Assay [4] has as its system A549 (human lung carcinoma). The assay is described as follows: MTT cell proliferation (cytotoxicity) assay, A549. The following applies: read-out: IC50 or concentration required to achieve 50% growth inhibition compared to untreated cells, A549 (lung). On the procedure:
as §1, §2, §3

The mark [5] stands for this setting: T98G cells, MTT, 2 days incubation, triplicate.
Setting [6] is: PSN1 cells, MTT, 2 days incubation, triplicate, read-out: IC50 or concentration required to achieve 50% growth inhibition compared to untreated cells, PSN1 (prostate).
Where [7] appears, read: H116 cells, MTT, 2 days incubation, triplicate.
The mark [8] stands for this setting: A549 cells, MTT, 2 days incubation, triplicate.
The mark [9] stands for this setting: Homo sapiens, 48 h, T98G cells, MTT, 2 days incubation, triplicate.
The mark [10] stands for this setting: Homo sapiens, 48 h, PSN1 cells, MTT, 2 days incubation, triplicate, read-out: IC50 or concentration required to achieve 50% growth inhibition compared to untreated cells, PSN1 (prostate).
The mark [11] stands for this setting: 48 h, H116 cells, MTT, 2 days incubation, triplicate.
Setting [12] is: Homo sapiens, 48 h, A549 cells, MTT, 2 days incubation, triplicate.

For “3D-demycarosyl-3D-β-D-digitoxosyl-MTM [reference compound]”, the IC50 in assay [1] (setting [5]) turned out to be 69 nM; in assay [2] (setting [6]), 46.6 nM; in assay [3] (setting [7]) it was 46.6 nM; in assay [4] (setting [8]), 46.6 nM.

As to “3D-demycarosyl-MTM-SK [reference compound]”, the IC50 in assay [1] (setting [5]) is more than 1000 nM; in assay [2] (setting [6]) it was 1000 nM; in assay [3] (setting [7]), 500 nM; in assay [4] (setting [8]) it was 1000 nM.

In the case of `CO[C@H](C(=O)C(C)=O)[C@@H]1Cc2cc3cc(O[C@H]4C[C@@H](O[C@H]5C[C@@H](O)[C@H](O)C(C)O5)[C@H](O)C(C)O4)c(C)c(O)c3c(O)c2C(=O)[C@H]1O[C@H]1C[C@@H](O[C@H]2C[C@@H](O[C@H]3C[C@@H](O)[C@H](O)C(C)O3)[C@@H](O)C(C)O2)[C@H](O)C(C)O1` (stereo partly drawn) [(IX)], the IC50 worked out at 10 nM in assay [1] (Homo sapiens, T98G, 48 h); 5 nM in assay [2] (Homo sapiens, PSN1, 48 h); 5 nM in assay [3] (H116, 48 h); 5 nM in assay [4] (Homo sapiens, A549, 48 h).

Regarding `C/C=C/C(=O)O[C@@H]1C[C@H](O[C@@H]2C[C@H](Oc3cc4cc5c(c(O)c4c(O)c3C)C(=O)[C@@H](O[C@H]3C[C@@H](O[C@H]4C[C@@H](O[C@H]6C[C@](C)(O)[C@H](O)C(C)O6)[C@@H](O)C(C)O4)[C@H](O)C(C)O3)[C@H]([C@H](OC)C(=O)[C@@H](O)[C@@H](C)O)C5)OC(C)[C@H]2O)OC(C)[C@H]1O` (stereo partly drawn) [(LI)], the IC50 in assay [1] (setting [9]) turned out to be 87 nM; in assay [2] (setting [10]), 43 nM; in assay [3] (setting [11]) it was 43 nM; in assay [4] (setting [12]), 43 nM.

`CO[C@H](C(=O)[C@@H](O)[C@@H](C)OC(=O)CCC(=O)O)[C@@H]1Cc2cc3cc(O[C@H]4C[C@@H](O[C@H]5C[C@@H](O)[C@H](O)C(C)O5)[C@H](O)C(C)O4)c(C)c(O)c3c(O)c2C(=O)[C@H]1O[C@H]1C[C@@H](O[C@H]2C[C@@H](O[C@H]3C[C@](C)(O)[C@H](O)C(C)O3)[C@@H](O)C(C)O2)[C@H](O)C(C)O1` (stereo partly drawn) [(LII)]: the IC50 in assay [1] (setting [9]) worked out at 844 nM; in assay [2] (setting [10]), 420 nM; in assay [3] (setting [11]), 420 nM; in assay [4] (setting [12]) it was 420 nM.

For `CO[C@H](C(=O)[C@@H](O)[C@@H](C)O)[C@@H]1Cc2cc3cc(O[C@H]4C[C@@H](O[C@H]5C[C@@H](O)[C@H](OC(=O)CCC(=O)O)C(C)O5)[C@H](O)C(C)O4)c(C)c(O)c3c(O)c2C(=O)[C@H]1O[C@H]1C[C@@H](O[C@H]2C[C@@H](O[C@H]3C[C@](C)(O)[C@H](O)C(C)O3)[C@@H](O)C(C)O2)[C@H](O)C(C)O1` (stereo partly drawn) [(LIII)], the IC50 in assay [1] (setting [9]) was 844 nM; in assay [2] (setting [10]), 633 nM; in assay [3] (setting [11]), 844 nM; in assay [4] (setting [12]), 4210 nM.

With `CO[C@H](C(=O)[C@@H](O)[C@@H](C)O)[C@@H]1Cc2cc3cc(O[C@H]4C[C@@H](O[C@H]5C[C@@H](OC(=O)CCC(=O)O)[C@H](O)C(C)O5)[C@H](O)C(C)O4)c(C)c(O)c3c(O)c2C(=O)[C@H]1O[C@H]1C[C@@H](O[C@H]2C[C@@H](O[C@H]3C[C@](C)(O)[C@H](O)C(C)O3)[C@@H](O)C(C)O2)[C@H](O)C(C)O1` (stereo partly drawn) [(LV)], the IC50 in assay [1] (setting [9]) turned out to be 4210 nM; in assay [2] (setting [10]) it was 422 nM; in assay [3] (setting [11]), 4210 nM; in assay [4] (setting [12]), 4210 nM.

Turning to `CO[C@@H]([C@@H]1Cc2cc3cc(O[C@H]4C[C@@H](O[C@H]5C[C@@H](OC(C)=O)[C@H](O)C(C)O5)[C@H](O)C(C)O4)c(C)c(O)c3c(O)c2C(=O)[C@H]1O[C@H]1C[C@@H](O[C@H]2C[C@@H](O[C@H]3C[C@](C)(O)[C@H](O)C(C)O3)[C@@H](O)C(C)O2)[C@H](O)C(C)O1)[C@@H](O)C(C)=O` (stereo partly drawn) [(LXI)], the IC50 in assay [1] (setting [9]) was determined as 45 nM; in assay [2] (setting [10]), 6.5 nM; in assay [3] (setting [11]), 9 nM; in assay [4] (setting [12]) it was 45 nM.

As for `CO[C@@H]([C@@H]1Cc2cc3cc(O[C@H]4C[C@@H](O[C@H]5C[C@@H](O)[C@H](OC(C)=O)C(C)O5)[C@H](O)C(C)O4)c(C)c(O)c3c(O)c2C(=O)[C@H]1O[C@H]1C[C@@H](O[C@H]2C[C@@H](O[C@H]3C[C@](C)(O)[C@H](O)C(C)O3)[C@@H](O)C(C)O2)[C@H](O)C(C)O1)[C@@H](O)C(C)=O` (stereo partly drawn) [(LXIX)], the IC50 in assay [1] (setting [9]) was 4 nM; in assay [2] (setting [10]), 45 nM; in assay [3] (setting [11]), 9 nM; in assay [4] (setting [12]), 9 nM.

In the case of `CO[C@@H]([C@@H]1Cc2cc3cc(O[C@H]4C[C@@H](O[C@H]5C[C@@H](O)[C@H](O)C(C)O5)[C@H](O)C(C)O4)c(C)c(O)c3c(O)c2C(=O)[C@H]1O[C@H]1C[C@@H](O[C@H]2C[C@@H](O[C@H]3C[C@@H](O)[C@H](O)C(C)O3)[C@@H](O)C(C)O2)[C@H](O)C(C)O1)[C@@H](O)C(C)=O` (stereo partly drawn) [(VII)], the IC50 stood at 300 nM in assay [1] (setting [9]), 100 nM in assay [2] (setting [10]), 10 nM in assay [3] (setting [11]) and 50 nM in assay [4] (setting [12]).

For the molecule `CO[C@H](C(=O)C(C)=O)[C@@H]1Cc2cc3cc(O[C@H]4C[C@@H](O[C@H]5C[C@@H](O)[C@H](O)C(C)O5)[C@H](O)C(C)O4)c(C)c(O)c3c(O)c2C(=O)[C@H]1O[C@H]1C[C@@H](O[C@H]2C[C@@H](O)[C@@H](O)C(C)O2)[C@H](O)C(C)O1` (stereo partly drawn) [(VIII)], the IC50 in assay [1] (setting [9]) amounted to 300 nM; in assay [2] (setting [10]) it was 100 nM; in assay [3] (setting [11]) it was 50 nM; in assay [4] (setting [12]), 50 nM.

For the molecule `CO[C@H](C(=O)[C@@H](O)[C@@H](C)O)[C@@H]1Cc2cc3cc(O[C@H]4C[C@@H](O[C@H]5C[C@@H](O)[C@H](O)C(C)O5)[C@H](O)C(C)O4)c(C)c(O)c3c(O)c2C(=O)[C@H]1O[C@H]1C[C@@H](O[C@H]2C[C@@H](O[C@H]3C[C@](C)(O)[C@H](OC(C)=O)C(C)O3)[C@@H](O)C(C)O2)[C@H](O)C(C)O1` (stereo partly drawn) [(XII)], the IC50 was 300 nM in assay [1] (setting [9]), 50 nM in assay [2] (setting [10]), 10 nM in assay [3] (setting [11]) and 50 nM in assay [4] (setting [12]).

As for `CO[C@@H]([C@@H]1Cc2cc3cc(O[C@H]4C[C@@H](O[C@H]5C[C@@H](O)[C@H](O)C(C)O5)[C@H](O)C(C)O4)c(C)c(O)c3c(O)c2C(=O)[C@H]1O[C@H]1C[C@@H](O[C@H]2C[C@@H](O[C@H]3C[C@](C)(O)[C@H](O)C(C)O3)[C@@H](O)C(C)O2)[C@H](O)C(C)O1)[C@@H](O)C(C)=O` (stereo partly drawn) [(XIV)], the IC50 in assay [1] (setting [9]) is 750 nM; in assay [2] (setting [10]) it was 50 nM; in assay [3] (setting [11]), 10 nM; in assay [4] (setting [12]), 50 nM.

As to `CCCC(=O)O[C@@H]1C[C@H](O[C@@H]2C[C@H](Oc3cc4cc5c(c(O)c4c(O)c3C)C(=O)[C@@H](O[C@H]3C[C@@H](O[C@H]4C[C@@H](O[C@H]6C[C@](C)(O)[C@H](O)C(C)O6)[C@@H](O)C(C)O4)[C@H](O)C(C)O3)[C@H]([C@H](OC)C(=O)[C@@H](O)[C@@H](C)O)C5)OC(C)[C@H]2O)OC(C)[C@H]1O` (stereo partly drawn) [(XLVI)], the IC50 in assay [1] (setting [9]) was determined as 43 nM; in assay [2] (setting [10]) it was 43 nM; in assay [3] (setting [11]), 43 nM; in assay [4] (setting [12]) it was 433 nM.

On to `CCCC(=O)O[C@H](C)[C@H](O)C(=O)[C@@H](OC)[C@@H]1Cc2cc3cc(O[C@H]4C[C@@H](O[C@H]5C[C@@H](O)[C@H](O)C(C)O5)[C@H](O)C(C)O4)c(C)c(O)c3c(O)c2C(=O)[C@H]1O[C@H]1C[C@@H](O[C@H]2C[C@@H](O[C@H]3C[C@](C)(O)[C@H](O)C(C)O3)[C@@H](O)C(C)O2)[C@H](O)C(C)O1` (stereo partly drawn) [(XXXI)], for which the IC50 in assay [1] (setting [9]), in assay [2] (setting [10]), in assay [3] (setting [11]) and in assay [4] (setting [12]) was 43 nM throughout.

The record behind these values is patent US8772253B2, “Aureolic acid derivatives, the method for preparation thereof and the uses” (Entrechem, S.L., priority 2009, dated 2014).
